# Source: patent publication US8188077B2, “Apoptosis-inducing agents for the treatment of cancer and immune and autoimmune diseases” (Abbott Laboratories, priority 2010, dated 2012)
# Target: T1, Bcl-2 protein (Homo sapiens, UniProt P10415, DELINS35-91DVEENRTEAPEGTESE, form not given)
# T1 construct: fused on or other part: Bcl-xL (Q07817) residues 29-44 stand in place of Bcl-2's own unstructured loop 35-91; The C-terminal membrane anchor (208-239) is absent
# Test: Bcl-2 fluorescence polarization assay (FPA) binding
# Conditions: 10 nM Bcl-2 protein, 1 nM fluorescein-labeled BAX peptide, room temperature, read-out: Bcl-2 FPA 11pt Ki
# Description: Assays for the inhibition of Bcl-2 were performed in 96-well microtiter plates. Compounds of the instant invention were diluted in DMSO to concentrations between […] and 10 pM and introduced into each well of the plate. A mixture totaling 125 µL per well of assay buffer (20 mM phosphate buffer (pH 7.4), 1 mM EDTA, 0.05% PF-68), 10 nM of Bcl-2 protein (prepared according to the procedure described in PNAS 2001, 98, 3012-3017), 1 nM fluorescein-labeled BAX peptide (prepared in-house), and the DMSO solution of the compound of the instant invention was shaken for 2 minutes and placed in a LJL Analyst (LJL Bio Systems, CA. Polarization was measured at room temperature using a continuous Fluorescein lamp (excitation 485 nm, emission 530 nm). Ki values were calculated using Microsoft Excel.
# T1 sequence (P10415 with tags, fused parts or gaps with the stated changes): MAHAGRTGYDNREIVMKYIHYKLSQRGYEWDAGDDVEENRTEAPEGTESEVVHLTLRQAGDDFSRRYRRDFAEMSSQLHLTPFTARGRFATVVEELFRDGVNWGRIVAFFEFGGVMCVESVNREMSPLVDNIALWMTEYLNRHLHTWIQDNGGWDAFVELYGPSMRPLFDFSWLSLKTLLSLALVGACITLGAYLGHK
row,Ki [nM],SMILES
1,> 6250,"O=C(NS(=O)(=O)c1ccc(NC2CCOCC2)c([N+](=O)[O-])c1)c1ccc(N2CC3CN(C(=O)C45CC6CC(CC(C6)C4)C5)CC32)cc1 [Example 44, 4-{1S,5S)-3-[adamantan-1-ylcarbonyl]-3,6-diazabicyclo[3.2.0]hept-6-yl}-N-{[3-nitro-4-(tetrahydro-2H-pyran-4-ylamino)phenyl]sulfonyl}benzamide]"
2,79,"C[C@@H]1[C@@H](N(CCCc2ccccc2)C2CCN(c3ccc(C(=O)NS(=O)(=O)c4ccc(NC5CCOCC5)c([N+](=O)[O-])c4)cc3)CC2)C[C@H]2C[C@@H]1C2(C)C [Example 45, N-{[3-nitro-4-(tetrahydro-2H-pyran-4-ylamino)phenyl]sulfonyl}-4-(4-{(3-phenylpropyl)[(1S,2S,3S,5R)-2,6,6-trimethylbicyclo[3.1.1]hept-3-yl]amino}piperidin-1-yl)benzamide]"
3,33,"C[C@@H]1[C@@H](N(C(=O)CCc2ccccc2)C2CCN(c3ccc(C(=O)NS(=O)(=O)c4ccc(NCC5CCCCC5)c([N+](=O)[O-])c4)cc3)CC2)C[C@H]2C[C@@H]1C2(C)C [Example 46, N-({4-[(cyclohexylmethyl)amino]-3-nitrophenyl}sulfonyl)-4-(4-{(3-phenylpropanoyl)[(1S,2S,3S,5R)-2,6,6-trimethylbicyclo[3.1.1]hept-3-yl]amino}piperidin-1-yl)benzamide]"
4,66.9,"O=C(NS(=O)(=O)c1ccc(NCC2CCCCC2)c([N+](=O)[O-])c1)c1ccc(N2CCN(CC34CC5CC(CC(C5)C3)C4)CC2)cc1 [Example 47, 4-{4-[adamantan-1-ylmethyl]piperazin-1-yl}-N-({4-[(cyclohexylmethyl)amino]-3-nitrophenyl}sulfonyl)benzamide]"
5,1390,"O=C(NS(=O)(=O)c1ccc(NCC2CCCCC2)c([N+](=O)[O-])c1)c1ccc2cc(-c3ccc(O)c(C45CC6CC(CC(C6)C4)C5)c3)ccc2c1 [Example 48, 6-{3-[adamantan-1-yl]-4-hydroxyphenyl}-N-({4-[(cyclohexylmethyl)amino]-3-nitrophenyl}sulfonyl)-2-naphthamide]"
6,342,"O=C(NS(=O)(=O)c1ccc(NCC2CCCCC2)c([N+](=O)[O-])c1)c1ccc(N2CCN(CC(=O)C34CC5CC(CC(C5)C3)C4)CC2)cc1 [Example 49, 4-(4-{2-[adamantan-1-yl]-2-oxoethyl}piperazin-1-yl)-N-({4-[(cyclohexylmethyl)amino]-3-nitrophenyl}sulfonyl)benzamide]"
7,3560,"O=C(NS(=O)(=O)c1ccc(NC2CCOCC2)c([N+](=O)[O-])c1)c1ccc(NCC2C3CC4CC(C3)CC2C4)cc1 (stereo not shown) [Example 50, 4-{[adamantan-2-ylmethyl]amino}-N-{[3-nitro-4-(tetrahydro-2H-pyran-4-ylamino)phenyl]sulfonyl}benzamide]"
8,1050,"O=C(NS(=O)(=O)c1ccc(NC2CCOCC2)c([N+](=O)[O-])c1)c1ccc(OCCC23CC4CC(CC(C4)C2)C3)cc1 [Example 51, 4-{2-[adamantan-1-yl]ethoxy}-N-{[3-nitro-4-(tetrahydro-2H-pyran-4-ylamino)phenyl]sulfonyl}benzamide]"
9,1390,"O=C(CCN(Cc1ccccc1)C(=O)CC12CC3CC(CC(C3)C1)C2)NS(=O)(=O)c1ccc(NCC2CCCCC2)c([N+](=O)[O-])c1 [Example 52, N^3-[adamantan-1-ylacetyl]-N^3-benzyl-N-({4-[(cyclohexylmethyl)amino]-3-nitrophenyl}sulfonyl)-beta-alaninamide]"
10,845,"C[C@@H]1[C@@H](N2CCN(c3ccc(C(=O)NS(=O)(=O)c4ccc(NCC5CCCCC5)c([N+](=O)[O-])c4)cc3)CC2)C[C@H]2C[C@@H]1C2(C)C [Example 53, N-({4-[(cyclohexylmethyl)amino]-3-nitrophenyl}sulfonyl)-4-{4-[(1S,2S,3S,5R)-2,6,6-trimethylbicyclo[3.1.1]hept-3-yl]piperazin-1-yl}benzamide]"
